In patent publication US20090048190A1, “Antiviral activity and resolution of 2-hydroxymethyl-5(5-fluorocytosin-1-yl)-1,3-oxathiolane” (priority 1990, published 2009):
Values joined by “and” are separate entries in the source; they are usually repeats but may differ in a detail not shown here. Equal values may be shown once. Read-outs that look alike come from different tables or passages of the source. Values belong to the compound of their own block, whether it stands above or below them.

Key:
[1] = tested on: HIV-1 (strain LAV); format: cell-based
Text: It is often desirable to screen a number of racemic mixtures of nucleosides as a preliminary step to determine which warrant further resolution into enantiomerically enriched components and further evaluation of antiviral activity. The ability of nucleosides to inhibit HIV can be measured by various experimental techniques. The technique used herein, and described in detail below, measures the inhibition of viral replication in phytohemagglutinin (PHA) stimulated human peripheral blood mononuclear (PBM) cells infected with HIV-1 (strain LAV). The amount of virus produced is determined by measuring the virus-coded reverse transcriptase enzyme. The amount of enzyme produced is proportional to the amount of virus produced.
A. Three-day-old phytohemagglutinin-stimulated PBM cells (10^6 cells/ml) from hepatitis B and HIV-1 seronegative healthy donors were infected with HIV-1 (strain LAV) at a concentration of about 100 times the 50% tissue culture infectious dose (TICD 50) per ml and cultured in the presence and absence of various concentrations of antiviral compounds.
B. Approximately one hour after infection, the medium, with the compound to be tested (2 times the final concentration in medium) or without compound, was added to the flasks (5 ml; final volume 10 ml). AZT was used as a positive control.
C. The cells were exposed to the virus (about 2×10^5 dpm/ml, as determined by reverse transcriptase assay) and then placed in a CO2 incubator. HIV-1 (strain LAV) was obtained from the Center for Disease Control, Atlanta, Ga. The methods used for culturing the PBM cells, harvesting the virus and determining the reverse transcriptase activity were those described by McDougal et al. (J. Immun. Meth. 76, 171-183, 1985) and Spira et al. (J. Clin. Meth. 25, 97-99, 1987), except that fungizone was not included in the medium (see Schinazi, et al., Antimicrob. Agents Chemother. 32, 1784-1787 (1988); Id., 34:1061-1067 (1990)).
D. On day 6, the cells and supernatant were transferred to a 15 ml tube and centrifuged at about 900 g for 10 minutes. Five ml of supernatant were removed and the virus was concentrated by centrifugation at 40,000 rpm for 30 minutes (Beckman 70.1 Ti rotor). The solubilized virus pellet was processed for determination of the levels of reverse transcriptase. Results are expressed in dpm/ml of sampled supernatant. Virus from smaller volumes of supernatant (1 ml) can also be concentrated by centrifugation prior to solubilization and determination of reverse transcriptase levels.

[2] = tested on: HIV; conditions: compared with AZT; cited from earlier work
[3] = tested on: AZT-resistant HIV isolates; conditions: in vitro, isolates from patients treated with AZT for longer than 36 weeks; cited from earlier work
[4] = tested on: human PBM cells; assay: Egress of radiolabeled FTC from human PBM cells; format: in vitro ADME; conditions: human PBM cells after 24 h pulse with 10 μM
Method: This study measures the time needed for intracellular levels of triphosphates to decline. Studies were conducted in duplicate. Uninfected cells (2×10^6 ml) were suspended in the appropriate medium supplemented with serum (10 ml per timepoint) and incubated at 37° C. in a 5% CO2 incubator. The radiolabeled FTC concentration was 10 μM. After pulsing the cells with the labeled compound for 24 hours, the cells were thoroughly washed and then replenished with fresh medium without the antiviral drugs (0 hr). At 0, 2, 4, 6, 12, 24, and 48 hours (second incubation time), the cells were removed, and immediately extracted with 60% cold methanol/water. The extract was obtained by centrifugation and removal of the cell pellet. The extracts were lyophilized and then stored at −70° C. Prior to analysis, the material was resuspended in 250 microliters of HPLC buffer and immediately analyzed. Quantitation of intracellular parent drug and metabolic derivatives was conducted by HPLC, using either a Micromeritics or Hewlett-Packard model 1090 PHLC system with an anion exchange Partisil 10 SAX column (Whatman, Inc.), at a flow rate of 1 ml/min, 1 kpsi pressure, with UV detection at 262 nm. The mobile phase consisted of deionized water (A), 2 mM NaH2PO4/16 mM NaOAc (pH=6.6) (B), 15 mM NaH2PO4/120.2 mM NaOAc (pH=6.6) (C), and 100 mM NaH2PO4/800 mM NaOAc (pH=6.6) (D). […]

[5] = molecular target: T1, HIV-1 reverse transcriptase (RT) (Human immunodeficiency virus type 1 group M subtype B, UniProt P04585); assay: Inhibition of HIV-1 reverse transcriptase by FTC triphosphate; format: biochemical; conditions: sequencing analysis, HIV-RT (C-stops)
T1 construct: HIV-1 reverse transcriptase (RT)
Method: Toxicity and pharmacokinetic studies confirm the usefulness of FTC as an antiviral agent for pharmaceutical administration. FTC and its enantiomers are nontoxic to peripheral human bone marrow cells at concentrations up to 50 µM and other cell lines at concentrations up to 200 μM. FTC-TP is a major intracellular metabolite in PBMC and HepG2 cells.

[6] = tested on: uninfected human PBM cells
Text: The cells were counted after 6 days using a hemacytometer and the trypan blue exclusion method, as described by Schinazi et al., Antimicrobial Agents and Chemotherapy, 22(3), 499 (1982).

[7] = tested on: HIV-2; assay: Antiretroviral activity in different cell systems, HIV-2; format: cell-based; conditions: PBMC (ROD2)
Method: Cell lines were obtained from either human donors, AIDS Research and Reference Reagent Program, NIH, Rockville, Md., ATCC, or the Red Cross. The CEM thymidine kinase deficient cells were prepared by sequential passage of CEM cells in the presence of 5-bromo-2′-deoxyuridine.

[8] = tested on: HIV; assay: microbe, parasite or virus in culture; format: cell-based; conditions: Human immunodeficiency virus 1; MT4 system
[9] = CSF/serum ratio in rhesus monkeys; format: in vivo; conditions: 1 hour after treatment
[10] = PBM cells, procedure similar to Example 6, read-out: EC50
[11] = enantiomers resolved by HPLC (Example 4), Table 4, read-out: EC50
[12] = human PBM cells, HIV-1 strain LAV, Table 3, read-out: Antiviral EC50

EC50 [1, 10]: 0.0017 µM
SMILES: CCCC(=O)OC[C@@H]1O[C@H](n2cc(F)c(N)nc2=O)CS1 (racemic) [5′-O-butyrate ester of (±)-FTC]

SMILES: Nc1ccn(C2CSC(CO)O2)c(=O)n1 (racemic) [(±)-BCH-189, 2-hydroxymethyl-5-(cytosin-1-yl)-1,3-oxathiolane]
activity against HIV [2]: approximately the same activity against HIV as AZT
inhibition of replication of AZT-resistant HIV isolates [3]: inhibit the replication of AZT-resistant HIV isolates

SMILES: Nc1nc(=O)n([C@@H]2CS[C@H](COP(=O)(O)OP(=O)(O)OP(=O)(O)O)O2)cc1F (racemic) [FTC-TP]
intracellular half-life [4]: approximately 12 hours
DNA chain termination [5]: potent DNA chain terminator

EC50 [1, 10]: 0.0028 µM
SMILES: CC(=O)Nc1nc(=O)n(C2CSC(CO)O2)cc1F (racemic) [N′-acetyl derivative of (±)-FTC]

SMILES: Nc1nc(=O)n(C2CSC(CO)O2)cc1F (single isomer, unassigned; (-)) [(−)-FTC, (−)-β-L-2-hydroxymethyl-5-(5-fluorocytosin-1-yl)-1,3-oxathiolane]
IC50 [6]: > 100 µM
EC50 [7]: 0.0007 µM
DPM/ml ([1]; 0.001 μM): 76,275 DPM/ml
DPM/ml ([1]; 0.005 μM): 58,590 DPM/ml
DPM/ml ([1]; 0.01 μM): 75,350 DPM/ml
DPM/ml ([1]; 0.05 μM): 28,890 DPM/ml
DPM/ml ([1]; 0.1 μM): 13,175 DPM/ml
DPM/ml ([1]; 0.5 μM): 9,485 DPM/ml
EC50 [1, 11]: 0.02 µM
EC50 [1, 12]: 0.008 µM

SMILES: Nc1nc(=O)n([C@H]2CS[C@@H](CO)O2)cc1F [(+)-FTC, (+)-β-D-2-hydroxymethyl-5-(5-fluorocytosin-1-yl)-1,3-oxathiolane]
IC50 [6]: > 100 µM
EC50 [7]: 0.026 µM
% Inhibition (Corrected) ([1]; 0.001 μM): 3.8%
DPM/ml ([1]; 0.001 μM): 94,340 DPM/ml
% Inhibition (Corrected) ([1]; 0.005 μM): −10.6%
DPM/ml ([1]; 0.005 μM): 107,430 DPM/ml
% Inhibition (Corrected) ([1]; 0.01 μM): −1.8%
DPM/ml ([1]; 0.01 μM): 99,465 DPM/ml
% Inhibition (Corrected) ([1]; 0.05 μM): 11.8%
DPM/ml ([1]; 0.05 μM): 87,120 DPM/ml
% Inhibition (Corrected) ([1]; 0.1 μM): 12.7%
DPM/ml ([1]; 0.1 μM): 86,340 DPM/ml
% Inhibition (Corrected) ([1]; 0.5 μM): 71.4%
DPM/ml ([1]; 0.5 μM): 33,225 DPM/ml
EC50 [1, 11]: 0.28 µM
EC50 ([1]; enantiomers resolved by method of Example 3, FIG. 6, read-out: EC50): 0.84 µM

SMILES: Cc1cn([C@H]2C[C@H](N=[N+]=[N-])[C@@H](CO)O2)c(=O)[nH]c1=O [AZT, 3′-azido-3′-deoxythymidine, reference compound]
IC50 [8]: 0.09 µM

SMILES: O=c1ccn(C2CSC(CO)O2)c(=O)[nH]1 (stereo not shown) [DLS-009]
IC50 [6]: > 100 µM
EC50 [1, 12]: > 100 µM

SMILES: Cc1cn(C2CSC(CO)O2)c(=O)[nH]c1=O (stereo not shown) [DLS-010]
EC50 [1, 12]: 64.4 µM

SMILES: Cc1cn([C@H]2CS[C@@H](CO)O2)c(=O)nc1N [DLS-011]
EC50 [1, 12]: > 10 µM

SMILES: Nc1nc(=O)n([C@H]2CS[C@@H](CO)O2)cc1Br [DLS-021]
EC50 [1, 12]: 77.4 µM

SMILES: Nc1nc(=O)n([C@H]2CS[C@@H](CO)O2)cc1Cl [DLS-023]
EC50 [1, 12]: 38.7 µM

SMILES: Nc1nc(=O)n([C@H]2CS[C@@H](CO)O2)cc1I [DLS-026]
EC50 [1, 12]: 0.72 µM

SMILES: O=c1[nH]c(=O)n([C@H]2CS[C@@H](CO)O2)cc1F [DLS-027]
IC50 [6]: > 100 µM
EC50 [1, 12]: > 100 µM

SMILES: O=c1[nH]c(=O)n([C@H]2CS[C@@H](CO)O2)cc1Cl [DLS-028]
EC50 [1, 12]: 60.8 µM

SMILES: O=c1[nH]c(=O)n([C@H]2CS[C@@H](CO)O2)cc1I [DLS-029]
IC50 [6]: > 100 µM
EC50 [1, 12]: > 100 µM

SMILES: O=c1[nH]c(=O)n([C@H]2CS[C@@H](CO)O2)cc1Br [DLS-044]
IC50 [6]: > 100 µM
EC50 [1, 12]: > 100 µM

SMILES: Nc1nc(=O)n([C@@H]2CS[C@H](CO)O2)cc1C(F)(F)F [DLS-053]
EC50 [1, 12]: 60.7 µM

CSF/Serum Ratio of deaminated metabolite (FTU) ([9]; I.V. FTC 33.3 mg/kg, individual monkeys): 0.024 and 0.032 and 0.052
CSF/Serum Ratio of deaminated metabolite (FTU) ([9]; I.V. FTC 33.3 mg/kg, mean): 0.036
CSF/Serum Ratio of deaminated metabolite (FTU) ([9]; P.O. FTC 33.3 mg/kg, individual monkeys): 0.026 and 0.037 and 0.055
CSF/Serum Ratio of deaminated metabolite (FTU) ([9]; P.O. FTC 33.3 mg/kg, mean): 0.039
SMILES: O=c1[nH]c(=O)n(C2CSC(CO)O2)cc1F (stereo not shown) [FTU]
